Measurements taken from paper PMC6748410, “A phase 2 study of an oral mTORC1/mTORC2 kinase inhibitor (CC-223) for non-pancreatic neuroendocrine tumors with or without carcinoid symptoms” (PLoS ONE, 2019).
Where “and” joins values, the source holds several entries; their conditions need not be identical. Equal entries are not always repeated.

Assays:
[1] = system: carcinoid symptoms of flushing and diarrhea; assay: Carcinoid symptom questionnaire (flushing, diarrhea); type: in vivo, human
Method: Metabolic changes were assessed by percent change in total of standardized uptake value (SUV) of 2-^18F-fluoro-2-deoxyglucose (FDG) with PET scanning from baseline to day 15 in cycle 1. Carcinoid symptoms of flushing and diarrhea were documented monthly with a non-validated symptom questionnaire that was completed at each study visit. Patients reported whether they had experienced specific events, and the severity and/or frequency of these events. Symptom improvement was defined as ≥50% reduction in frequency and/or a 1-grade reduction in severity for each from baseline.

[2] = Rat; trial protocol; cited from earlier work
[3] = system: well-differentiated NET of non-pancreatic gastrointestinal or unknown origin; assay: Tumor response by investigator (RECIST version 1.1), PFS and OS; type: in vivo, human
From the text: Tumors were restaged by the principal investigator at each site using computed tomography (CT), positron emission tomography (PET)-CT, or magnetic resonance imaging scans after every 2 cycles through cycle 6, and every 3 cycles thereafter, using Response Evaluation Criteria In Solid Tumors (RECIST) version 1.1 criteria for response.
(§1) This phase 1/2 study was not powered for inferential statistics and mostly descriptive statistics were used. All patients dosed with CC-223 were included in the safety analysis. The efficacy analysis included all patients completing at least one cycle of drug who had both baseline and one post-baseline tumor efficacy assessment, unless otherwise specified. Categorical baseline variables including tumor type-specific characteristics were summarized using frequency counts and percentage. Continuous demographic and baseline characteristic variables were summarized by descriptive statistics. A Wilcoxon signed rank test was used to analyse change from baseline in serum hormone levels at selected scheduled visits.
Best overall tumor response by investigator assessment was summarized using frequency tabulation. Waterfall plots were used to show best percentage change from baseline in the sum of length (longest diameter) of target lesions.
Relationship between PFS and NET-specific assessments such as serum hormone levels and carcinoid symptoms were investigated. The Kaplan-Meier estimate of median PFS with its two-sided 95% confidence interval [CI] was provided for each baseline category of the selected biomarkers. Kaplan-Meier plots of PFS were created by category. The raw P value of the log rank test comparing survival distribution of PFS between categories was also provided.

[4] = system: serum hormones (CgA, gastrin, glucagon, serotonin); assay: Serum hormone changes from baseline; type: in vivo, human; conditions: among 35 patients with elevated baseline levels in at least one hormone
Method: Central laboratories conducted serial stimulated blood biomarker assays in monocytes (CD14+) for p4E-BP1 and pPKB (also known as pAKT) for assessment of mTORC1 and mTORC2 inhibition, respectively. Monthly changes from baseline for chromogranin A (CgA), and for other serum hormones if elevated, were assayed locally.
as §1

Structure (SMILES): CO[C@H]1CC[C@H](N2C(=O)CNc3ncc(-c4ccc(C(C)(C)O)nc4)nc32)CC1 [CC-223]
- Symptom reduction at any time during the study: both flushing and diarrhea ([1]; 5 of 13 affected patients): 39%
- Symptom reduction at any time during the study: flushing ([1]; 8 of 16 affected patients): 50%
- Symptom reduction at any time during the study: diarrhea ([1]; 9 of 22 affected patients): 41%
- STD10 (severely toxic dose in 10% of the animals tested) [2]: 10 mg/kg
- Progressive disease (PD) ([3]; 1 of 41 evaluable patients, investigator assessment): 2.4%
- Partial response (PR) ([3]; 3 of 41 evaluable patients, investigator assessment): 7% and 7.3%
- Objective response rate (CR+PR) ([3]; 41 evaluable patients, 95% CI 1.5–19.9%): 7.3%
- Disease control rate (CR+PR+SD) ([3]; 41 evaluable patients, 95% CI 76.9–97.3%): 90% and 90.2%
- Complete response (CR) ([3]; 41 evaluable patients, investigator assessment): no patient
- Patients with tumor shrinkage of any magnitude relative to baseline ([3]; 95% CI 57.1–85.8%): 73.2%
- Median PFS in patients without carcinoid symptom improvement ([3]; ad hoc exploratory analysis, 95% CI 35.6–104.4): 48.1 weeks and 48 weeks
- Median PFS in patients with carcinoid symptom improvement ([3]; ad hoc exploratory analysis, 95% CI 72.6–not estimable): 108.4 weeks and 108 weeks
- PFS rate ([3]; at 6 months): 85%
- PFS rate ([3]; at 10 months): 64%
- OS rate ([3]; at 48 weeks): 0.97
- Duration of SD (min–max) ([3]; in vivo): 50 to 1519 days
- Median duration of SD ([3]; in vivo): 297 days
- Patients with duration of SD longer than a year ([3]; in vivo): 17 patients
- Median OS ([3]; treated population): not assessable
- Median progression-free survival (PFS) ([3]; treated population, 95% CI 10.4–28.5 months): 19.5 months
- Patients with ≥50% decline from baseline in CgA [4]: 7 patients
- Patients with ≥50% decline from baseline in gastrin [4]: 6 patients
- Patients with ≥50% decline from baseline in glucagon [4]: 3 patients
- Patients with ≥50% decline from baseline in serotonin [4]: 2 patients
